According to paper PMC11555526, “Development of 2-Aminoadenine-Based Proteolysis-Targeting Chimeras (PROTACs) as Novel Potent Degraders of Monopolar Spindle 1 and Aurora Kinases” (ACS Pharmacology & Translational Science, 2024):

Columns and labels:
[1] = Plasma stability (LC-ESI-MS); format: in vitro ADME; conditions: 37 °C
Protocol: Lastly, to gain a first insight into the stability of the synthesized compounds in a biological system, the stability of one of the degraders was examined at two different pH values and in human plasma (Figures S8 and S9). We chose one of the best degraders of the SF1 series, 20 as it also resembled the best degrader from azareversine series 19 in terms of the linker and E3-binding moiety. All experiments were carried out at 37 °C, and aliquots were analyzed using LC-ESI-MS at predetermined time points. […] We concluded from the stability profile of 20 that it is sufficient for further testing.
First, 250 µg of conjugate 20 were diluted in 5 µL DMSO and the mixture was added to 0.5 mL of human plasma. The mixture was incubated at 37 °C. 50 µL of aliquot was removed at predetermined time points and quenched with 150 µL ice-cold acetonitrile (+0.1% formic acid). Then, the mixture was centrifuged at 10,000 rpm for 10 min. Then, 50 µL of supernatant was added to 50 µL of ultrapure water (+0.1% formic acid) and analyzed by LC-MS. Results are presented as the mean ± SD of three independent experiments. […]

AURKA = target: T1, AURKA (Homo sapiens, UniProt O14965); test: Immunoblot of AURKA in HiBiT-TTK cells; format: cell-based; conditions: 6 h
T1 construct: endogenous in cells; host or cells: MV4-11 HiBiT-TTK cells (AURKA not transduced)
T1 sequence (O14965 1-403): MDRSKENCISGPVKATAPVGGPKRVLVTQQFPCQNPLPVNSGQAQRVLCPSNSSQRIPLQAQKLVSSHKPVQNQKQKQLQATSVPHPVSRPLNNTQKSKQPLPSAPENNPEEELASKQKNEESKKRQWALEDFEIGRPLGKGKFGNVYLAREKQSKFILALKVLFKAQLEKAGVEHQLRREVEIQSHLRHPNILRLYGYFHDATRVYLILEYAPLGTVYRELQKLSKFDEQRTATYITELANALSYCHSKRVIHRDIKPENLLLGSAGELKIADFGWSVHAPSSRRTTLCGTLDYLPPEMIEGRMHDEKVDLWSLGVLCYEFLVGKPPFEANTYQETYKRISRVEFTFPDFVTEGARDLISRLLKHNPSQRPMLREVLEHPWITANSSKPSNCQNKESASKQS
Protocol: The cells were treated with compounds or vehicle for indicated time points and lysed in RIPA lysis buffer (50 mM HEPES pH 7.9, 140 mM NaCl, 1 mM EDTA, 1% Triton X-100, 0.1% SDS, 0.1% sodium deoxycholate) containing protease and phosphatase inhibitors (Sigma) for 20 min at 4 °C. Cell lysates were cleared by centrifugation, and protein concentration was determined with bicinchoninic acid assay. Equal amounts of protein per sample were separated by Bis-Tris-PAGE and transferred to PVDF membranes (Millipore). The membranes were blocked with 5% (w/v) nonfat dry milk in TBS-T [20 mM Tris–HCl, pH 7.5, 150 mM NaCl, 0.1% (v/v) Tween-20] for 1 h at room temperature and incubated with primary antibody at 4 °C overnight. Visualization was carried out using horseradish peroxidase (HRP)-labeled secondary antibodies and detected using a chemiluminescent HRP substrate (Millipore) in LAS3000 or LAS4000 mini (Fujifilm). Vinculin, GAPDH, or B-actin were used as a loading control. […] The signal was quantified using ImageJ or Image Studio Lite against the corresponding loading controls. […]
Figure S2: Cellular degradation studies of SF1-based compounds. […] Indicated MV4-11 HiBiT cells were treated with different concentrations of 15 (B), and 28 (C) for 6 h, lysed, complemented with the large luciferase fragment (largeBiT), and luciferase 27 (A), activity was measured. […]

| Structure (SMILES) | half-life (t1/2) in human plasma [1] [h] | relative AURKA level (immunoblot quantification, vehicle = 1.00) (AURKA; 0.16 µM) | relative AURKA level (immunoblot quantification, vehicle = 1.00) (AURKA; 10 µM) |
| --- | --- | --- | --- |
| CC(C)S(=O)(=O)c1ccccc1Nc1nc(Nc2ccc(N3CCN(C(=O)CNC(=O)CCCC(=O)Nc4cccc5c4C(=O)N(C4CCC(=O)NC4=O)C5=O)CC3)cc2)nc2[nH]cnc12 (stereo not drawn) [Compound 20] | 4.4 |  |  |
| Cc1ncsc1-c1ccc(CNC(=O)[C@@H]2C[C@@H](O)CN2C(=O)[C@@H](NC(=O)COCCOCC(=O)N2CCN(c3ccc(Nc4nc(Nc5ccccc5S(=O)(=O)C(C)C)c5nc[nH]c5n4)cc3)CC2)C(C)(C)C)cc1 [Compound 49] |  | 1.00 | 0.87 |
